Here are results for 19 molecules from patent US20260184707A1, “PHARMACEUTICAL COMPOUNDS FOR THE TREATMENT OF COMPLEMENT MEDIATED DISORDERS” (ALEXION PHARMACEUTICALS, INC., priority 2022, published 2026).

SMILES strings stand for the structures. pIC50: −log10 of the molar value.

The target of the experiment is T1, Human complement C1s enzyme (Homo sapiens, UniProt P09871).
T1 construct: purified from human serum, Complement Technology, Inc; purchased Complement Technology, Inc; host or cells: human serum (plasma-derived native protein)
T1 sequence (P09871 438-688 limits assumed): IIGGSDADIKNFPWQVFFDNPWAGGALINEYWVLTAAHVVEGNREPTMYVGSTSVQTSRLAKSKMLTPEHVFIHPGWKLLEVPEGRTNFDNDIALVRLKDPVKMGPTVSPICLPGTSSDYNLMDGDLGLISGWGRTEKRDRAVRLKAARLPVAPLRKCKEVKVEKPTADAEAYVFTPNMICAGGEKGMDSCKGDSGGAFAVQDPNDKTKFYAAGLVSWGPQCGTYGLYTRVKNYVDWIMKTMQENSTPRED
T1 sequence (P09871 16-437 partner limits assumed): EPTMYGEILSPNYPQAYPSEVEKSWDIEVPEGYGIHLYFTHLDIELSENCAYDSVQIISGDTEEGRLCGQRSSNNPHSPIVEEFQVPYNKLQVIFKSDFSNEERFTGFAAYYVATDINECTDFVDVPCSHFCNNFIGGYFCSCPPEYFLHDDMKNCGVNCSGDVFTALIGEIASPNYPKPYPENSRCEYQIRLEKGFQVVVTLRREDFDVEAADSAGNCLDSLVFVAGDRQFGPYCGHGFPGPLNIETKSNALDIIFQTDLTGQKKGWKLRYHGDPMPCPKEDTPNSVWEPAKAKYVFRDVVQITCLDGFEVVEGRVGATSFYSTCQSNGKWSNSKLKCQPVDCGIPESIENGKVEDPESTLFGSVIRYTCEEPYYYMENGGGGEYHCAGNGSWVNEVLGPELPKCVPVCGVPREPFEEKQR
Put plainly: Human C1s enzyme assay. In kind it is biochemical. The note with it: human complement C1s enzyme 1.16 nM, substrate Z-L-Lys-SBzl, A405; read-out: IC50 (Stars). A digest of the protocol: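 Serum-purified human C1s (1.16 nM final) preincubated 5 min at room temperature with compound in 50 mM Tris, 1 M NaCl, pH 7.5. Z-L-Lys-SBzl and DTNB added at 100 μM each; A405 recorded every 30 s. IC50 from nonlinear regression of reaction rates versus compound concentration.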

For orientation: pIC50 means the IC50 on a negative log10 scale, so that one unit is a factor of ten. Take `C[C@@H](Nc1cnc(-c2ccccc2F)n(CC(=O)NCc2cc3cnccc3[nH]2)c1=O)c1ccc2oc3c(F)cccc3c2c1` [Compound 318, (R)—N-((1H-Pyrrolo[3,2-c]pyridine-2-yl)methyl)-2-(5-((1-(6-fluorodibenzo[b,d]furan-2-yl)ethyl)amino)-2-(2-fluorophenyl)-6-oxopyrimidin-1(6H)-yl)acetamide]: the pIC50 is > 7.00.
Regarding `COc1ncc(N[C@H](C)c2ccc3oc4ccccc4c3c2)c(=O)n1CC(=O)NCc1cc2cnccc2[nH]1` [Compound 319, (R)—N-((1H-pyrrolo[3,2-c]pyridine-2-yl)methyl)-2-(5-((1-(dibenzo[b,d]furan-2-yl)ethyl)amino)-2-methoxy-6-oxopyrimidin-1(6H)-yl)acetamide], the pIC50 is < 6.00.
As to `C[C@@H](Nc1cnc(-c2ncco2)n(CC(=O)NCc2cc3cnccc3[nH]2)c1=O)c1ccc2oc3ccccc3c2c1` [Compound 320, (R)-N-((1H-pyrrolo[3,2-c]pyridin-2-yl)methyl)-2-(5-((1-(dibenzo[b,d]furan-2-yl)ethyl)-amino)-2-(oxazol-2-yl)-6-oxo-pyrimidin-1(6H)-yl)acetamide], the pIC50 is > 7.00.
As for `C[C@@H](Nc1cnc(-c2ccccc2F)n(CC(=O)NCc2cc3cnccc3[nH]2)c1=O)c1coc(-c2ccccc2)n1` [Compound 321, (R)—N-((1H-pyrrolo[3,2-c]pyridine-2-yl)methyl)-2-(2-(2-fluorophenyl)-6-oxo-5-((1-(2-phenyloxazol-4-yl)ethyl)amino)pyrimidin-1(6H)-yl)acetamide], the negative-log IC50 (pIC50) was > 7.00.
For the molecule `C[C@@H](Nc1ncc(-c2ccccc2F)n(CC(=O)NCc2cc3cnccc3[nH]2)c1=O)c1ccc2oc3ccccc3c2c1` [Compound 322, (R)-N-((1H-pyrrolo[3,2-c]pyridin-2-yl)methyl)-2-(3-((1-(dibenzo[b,d]furan-2-yl)ethyl)-amino)-6-(2-fluorophenyl)-2-oxopyrazin-1(2H)-yl)acetamide], the pIC50 is > 7.00.
Consider `C[C@@H](Nc1cnc(-c2ccccn2)n(CC(=O)NCc2cc3cnccc3[nH]2)c1=O)c1ccc2oc3ccccc3c2c1` [Compound 323, (R)-N-((1H-pyrrolo[3,2-c]pyridin-2-yl)methyl)-2-(5-((1-(dibenzo[b,d]furan-2-yl)ethyl)-amino)-6-oxo-2-(pyridin-2-yl)-pyrimidin-1(6H)-yl)acetamide], for which the pIC50 was > 7.00.
Next, `C[C@@H](Nc1cnc(C2CCCC2)n(CC(=O)NCc2cc3cnccc3[nH]2)c1=O)c1ccc2oc3ccccc3c2c1` [Compound 324, (R)-N-((1H-pyrrolo[3,2-c]pyr-idin-2-yl)methyl)-2-(2-cyclo-pentyl-5-((1-(dibenzo[b,d]furan-2-yl)ethyl)amino)-6-oxo-pyrimidin-1(6H)-yl)acetamide]: 6.00 to 7.00; `C[C@@H](Nc1cnc(C2=CCCCC2)n(CC(=O)NCc2cc3cnccc3[nH]2)c1=O)c1ccc2oc3ccccc3c2c1` [Compound 325, (R)-N-((1H-pyrrolo[3,2-c]pyr-idin-2-yl)methyl)-2-(2-(cyclo-hex-1-en-1-yl)-5-((1-(dibenzo [b,d]furan-2-yl)ethyl)amino)-6-oxopyrimidin-1(6H)-yl)acet-amide]: > 7.00; `C[C@@H](Nc1cnc(-c2ccco2)n(CC(=O)NCc2cc3cnccc3[nH]2)c1=O)c1ccc2oc3ccccc3c2c1` [Compound 326, (R)-N-((1H-pyrrolo[3,2-c]pyridin-2-yl)methyl)-2-(5-((1-(dibenzo[b,d]furan-2-yl)ethyl)-amino)-2-(furan-2-yl)-6-oxo-pyrimidin-1(6H)-yl)acetamide]: > 7.00.
In the case of `C[C@@H](Nc1cnc(-c2cccs2)n(CC(=O)NCc2cc3cnccc3[nH]2)c1=O)c1ccc2oc3ccccc3c2c1` [Compound 327, (R)-N-((1H-pyrrolo[3,2-c]pyridin-2-yl)methyl)-2-(5-((1-(dibenzo[b,d]furan-2-yl)ethyl)-amino)-6-oxo-2-(thiophen-2-yl)pyrimidin-1(6H)-yl)acet-amide], the pIC50 is > 7.00.
Take `C[C@@H](Nc1cnc(-c2cnn(C)c2)n(CC(=O)NCc2cc3cnccc3[nH]2)c1=O)c1ccc2oc3ccccc3c2c1` [Compound 328, (R)-N-((1H-pyrrolo[3,2-c]pyridin-2-yl)methyl)-2-(5-((1-(dibenzo[b,d]furan-2-yl)ethyl)-amino)-2-(1-methyl-1H-pyr-azol-4-yl)-6-oxopyrimidin-1(6H)-yl)acetamide]: the negative-log IC50 (pIC50) is > 7.00.
As for `C[C@@H](Nc1nccn(CC(=O)NCc2cc3cnccc3[nH]2)c1=O)c1ccc2oc3ccccc3c2c1` [Compound 329, (R)-N-((1H-pyrrolo[3,2-c]pyridin-2-yl)methyl)-2-(3-((1-(dibenzo[b,d]furan-2-yl)ethyl)-amino)-2-oxopyrazin-1(2H)-yl)acetamide], the pIC50 was 6.00 to 7.00.
In the case of `O=C(Cn1c(C2CC2)ncc(NCc2ccc3oc4ccccc4c3c2)c1=O)NCc1cc2cnccc2[nH]1` [Compound 330, N-((1H-pyrrolo[3,2-c]pyridin-2-yl)methyl)-2-(2-cyclopropyl-5-((dibenzo[b,d]furan-2-yl-methyl)amino)-6-oxopyrimi-din-1(6H)-yl)acetamide], the pIC50 was > 7.00.
In the case of `CC(C)[C@@H](Nc1cnc(-c2ccccc2F)n(CC(=O)NCc2cc3cnccc3[nH]2)c1=O)c1ccc2oc3ccccc3c2c1` [Compound 332, (R)—N-((1H-pyrrolo[3,2-c]pyridine-2-yl)methyl)-2-(5-((1-(dibenzo[b,d]furan-2-yl)-2-methylpropyl)amino)-2-(2-fluorophenyl)-6-oxopyrimidin-1(6H)-yl)acetamide], the pIC50 was < 6.00.
On to `Cc1cn(CC(=O)NCc2cc3cnccc3[nH]2)c(=O)c(N[C@H](C)c2ccc3oc4ccccc4c3c2)n1` [Compound 333, (R)—N-((1H-pyrrolo[3,2-c]pyridine-2-yl)methyl)-2-(3-((1-(dibenzo[b,d]furan-2-yl)ethyl)amino)-5-methyl-2-oxopyrazin-1(2H)-yl)acetamide], for which the pIC50 is > 7.00.
On to `C[C@@H](Nc1cnc(-c2ccncc2)n(CC(=O)NCc2cc3cnccc3[nH]2)c1=O)c1ccc2oc3ccccc3c2c1` [Compound 334, (R)-N-((1H-pyrrolo[3,2-c]pyridin-2-yl)methyl)-2-(5-((1-(dibenzo[b,d]furan-2-yl)ethyl)-amino)-6-oxo-2-(pyridin-4-yl)-pyrimidin-1(6H)-yl)acetamide], for which the pIC50 is > 7.00.
Consider `C[C@@H](Nc1cnc(-c2cccnc2)n(CC(=O)NCc2cc3cnccc3[nH]2)c1=O)c1ccc2oc3ccccc3c2c1` [Compound 335, (R)-N-((1H-pyrrolo[3,2-c]pyridin-2-yl)methyl)-2-(5-((1-(dibenzo[b,d]furan-2-yl)ethyl)-amino)-6-oxo-2-(pyridin-3-yl)-pyrimidin-1(6H)-yl)acetamide], for which the pIC50 was > 7.00.
For `Cc1nc(-c2ccccc2)n(CC(=O)NCc2cc3cnccc3[nH]2)c(=O)c1N[C@H](C)c1ccc2oc3ccccc3c2c1` [Compound 336, (R)—N-((1H-pyrrolo[3,2-c]pyridin-2-yl)methyl)-2-(5-((1-(dibenzo[b,d]furan-2-yl)ethyl)amino)-4-methyl-6-oxo-2-phenylpyrimidin-1(6H)-yl)acetamide], the pIC50 is > 7.00.
As for `Cc1nc(-c2ccccc2)n(CC(=O)NCc2cc3cnccc3[nH]2)c(=O)c1NCc1ccc2oc3ccccc3c2c1` [Compound 337, N-((1H-pyrrolo[3,2-c]pyridin-2-yl)methyl)-2-(5-((dibenzo [b,d]furan-2-ylmethyl)amino)-4-methyl-6-oxo-2-phenylpyr-imidin-1(6H)-yl)acetamide], the pIC50 was > 7.00.
